Experiments:
[1] = target: Sodium-dependent noradrenaline transporter (Homo sapiens, UniProt P23975); experiment: DRUGMATRIX: Norepinephrine Transporter radioligand binding (ligand: [125I] RTI-55); type: cell membranes, MDCK, Membrane; conditions: mdck; Not Active = under 50% inhibition at 10 µM
[2] = target: T1, Muscarinic acetylcholine receptor M4 (Homo sapiens, UniProt P08173); type: cell membranes, CHO-K1, Membrane; conditions: cho-k1; further: in other assays of this panel Not Active means under 50% inhibition at 10 µM
T1 sequence (P08173 whole entry): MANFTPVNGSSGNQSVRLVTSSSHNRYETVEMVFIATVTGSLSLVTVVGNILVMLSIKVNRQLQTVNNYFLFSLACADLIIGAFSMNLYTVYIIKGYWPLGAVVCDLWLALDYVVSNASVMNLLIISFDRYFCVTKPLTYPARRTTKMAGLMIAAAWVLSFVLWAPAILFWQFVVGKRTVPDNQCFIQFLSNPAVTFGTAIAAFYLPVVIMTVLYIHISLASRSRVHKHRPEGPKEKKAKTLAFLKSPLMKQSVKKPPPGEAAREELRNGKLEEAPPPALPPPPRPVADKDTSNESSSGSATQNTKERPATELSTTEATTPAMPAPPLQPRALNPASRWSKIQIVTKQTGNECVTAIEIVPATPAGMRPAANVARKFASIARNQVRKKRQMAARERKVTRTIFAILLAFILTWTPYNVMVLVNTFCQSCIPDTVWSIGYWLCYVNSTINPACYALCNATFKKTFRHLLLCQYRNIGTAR

[3] = DRUGMATRIX: Sodium/nucleoside co-transporter radioligand binding (ligand: nitrobenzylthioinosine); type: cell membranes, Cavia porcellus, Dunkin-Hartley, Cerebral cortex, Membrane; conditions: Not Active = under 50% inhibition at 10 µM
Melanocortin receptor 4 = Melanocortin receptor 4 (Homo sapiens, UniProt P32245); type: cell membranes, Membrane; conditions: hek293; further: in other assays of this panel Not Active means under 50% inhibition at 10 µM
[4] = target: 5-hydroxytryptamine receptor 1B (Rattus norvegicus, UniProt P28564); type: cell membranes, Wistar, Cerebral cortex, Membrane; further: in other assays of this panel Not Active means under 50% inhibition at 10 µM
Interstitial collagenase = target: T2, Interstitial collagenase (Homo sapiens, UniProt P03956); type: tissue-based, Rheumatoid synovial fibroblasts;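 further: MMP-1 enzyme inhibition assay using a peptide substrate; in other assays of this panel Not Active means under 50% inhibition at 10 µM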
T2 sequence (P03956 whole entry): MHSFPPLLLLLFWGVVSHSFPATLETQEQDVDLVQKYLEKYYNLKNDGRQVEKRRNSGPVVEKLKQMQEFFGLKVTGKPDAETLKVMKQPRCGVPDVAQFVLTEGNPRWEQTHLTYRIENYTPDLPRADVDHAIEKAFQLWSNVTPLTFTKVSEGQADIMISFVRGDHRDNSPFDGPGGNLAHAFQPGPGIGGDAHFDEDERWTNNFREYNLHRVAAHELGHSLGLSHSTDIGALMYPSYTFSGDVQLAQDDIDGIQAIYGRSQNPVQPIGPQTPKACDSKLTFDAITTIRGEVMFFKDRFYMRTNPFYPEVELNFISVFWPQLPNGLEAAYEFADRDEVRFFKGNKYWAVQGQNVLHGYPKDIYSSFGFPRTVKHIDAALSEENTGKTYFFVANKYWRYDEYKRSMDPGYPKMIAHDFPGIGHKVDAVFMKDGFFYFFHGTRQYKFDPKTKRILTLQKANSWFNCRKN

[5] = target: T3, Neuropeptide Y receptor type 2 (Homo sapiens, UniProt P49146); type: cell membranes, Membrane; conditions: kan-ts; further: in other assays of this panel Not Active means under 50% inhibition at 10 µM
T3 sequence (P49146 whole entry): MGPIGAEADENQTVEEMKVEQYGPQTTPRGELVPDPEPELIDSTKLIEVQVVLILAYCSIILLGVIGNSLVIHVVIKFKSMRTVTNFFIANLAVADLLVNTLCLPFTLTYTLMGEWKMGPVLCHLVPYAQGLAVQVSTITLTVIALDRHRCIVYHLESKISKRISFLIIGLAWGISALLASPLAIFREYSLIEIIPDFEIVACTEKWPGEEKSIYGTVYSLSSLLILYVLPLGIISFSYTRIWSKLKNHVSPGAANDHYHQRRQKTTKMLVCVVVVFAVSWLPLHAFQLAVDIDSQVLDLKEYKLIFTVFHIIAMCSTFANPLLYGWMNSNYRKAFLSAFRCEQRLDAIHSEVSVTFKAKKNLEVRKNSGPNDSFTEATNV

[6] = DRUGMATRIX: Interleukin IL-1 radioligand binding (ligand: [125I] interleukin 1beta); type: cell membranes, Membrane; conditions: nih3t3; Not Active = under 50% inhibition at 10 µM
Melanocortin receptor 5 = Melanocortin receptor 5 (Homo sapiens, UniProt P33032); type: cell membranes, HEK293, Membrane; conditions: hek293; further: in other assays of this panel Not Active means under 50% inhibition at 10 µM
[7] = target: T4, Muscarinic acetylcholine receptor M5 (Homo sapiens, UniProt P08912); type: cell membranes, CHO-K1, Membrane; conditions: cho-k1; further: in other assays of this panel Not Active means under 50% inhibition at 10 µM
T4 sequence (P08912 whole entry): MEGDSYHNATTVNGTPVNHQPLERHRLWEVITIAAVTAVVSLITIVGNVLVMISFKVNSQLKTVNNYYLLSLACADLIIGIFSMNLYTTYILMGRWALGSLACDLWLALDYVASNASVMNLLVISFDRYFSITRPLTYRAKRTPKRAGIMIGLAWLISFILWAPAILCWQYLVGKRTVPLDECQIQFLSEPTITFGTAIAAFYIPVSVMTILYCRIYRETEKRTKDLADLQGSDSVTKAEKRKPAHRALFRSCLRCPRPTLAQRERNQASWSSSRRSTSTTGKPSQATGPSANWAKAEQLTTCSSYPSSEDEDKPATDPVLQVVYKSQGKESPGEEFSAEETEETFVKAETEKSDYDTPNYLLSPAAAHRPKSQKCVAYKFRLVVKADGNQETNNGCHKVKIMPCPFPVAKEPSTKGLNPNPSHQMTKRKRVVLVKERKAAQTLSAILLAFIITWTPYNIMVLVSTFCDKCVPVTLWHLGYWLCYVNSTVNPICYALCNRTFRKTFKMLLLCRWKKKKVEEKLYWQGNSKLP

Cytochrome P450 2C19 = Cytochrome P450 2C19 (Homo sapiens, UniProt P33261); conditions: bti-tn-5b1-4; further: in other assays of this panel Not Active means under 50% inhibition at 10 µM
[8] = target: Platelet-activating factor receptor (Homo sapiens, UniProt P25105); experiment: biochemical; type: tissue-based; conditions: platelet; further: in other assays of this panel Not Active means under 50% inhibition at 10 µM
[9] = target: Beta-2 adrenergic receptor (Homo sapiens, UniProt P07550); experiment: DRUGMATRIX: Adrenergic beta2 radioligand binding (ligand: [3H] CGP-12177); type: cell membranes, Membrane; conditions: cho; Not Active = under 50% inhibition at 10 µM
Beta-2 adrenergic receptor, sequence (P07550 whole entry): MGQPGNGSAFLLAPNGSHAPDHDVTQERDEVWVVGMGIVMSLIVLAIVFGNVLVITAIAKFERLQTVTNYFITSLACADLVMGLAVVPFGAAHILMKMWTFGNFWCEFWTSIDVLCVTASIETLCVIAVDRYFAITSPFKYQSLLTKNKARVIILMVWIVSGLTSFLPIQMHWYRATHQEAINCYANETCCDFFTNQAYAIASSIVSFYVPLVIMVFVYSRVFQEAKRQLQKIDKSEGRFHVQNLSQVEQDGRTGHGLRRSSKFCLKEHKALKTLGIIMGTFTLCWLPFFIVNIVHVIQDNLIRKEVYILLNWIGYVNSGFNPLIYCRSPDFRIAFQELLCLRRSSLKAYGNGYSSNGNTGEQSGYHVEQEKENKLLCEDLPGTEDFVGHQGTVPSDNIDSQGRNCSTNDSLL

Melanocortin receptor 4, sequence (P32245 whole entry): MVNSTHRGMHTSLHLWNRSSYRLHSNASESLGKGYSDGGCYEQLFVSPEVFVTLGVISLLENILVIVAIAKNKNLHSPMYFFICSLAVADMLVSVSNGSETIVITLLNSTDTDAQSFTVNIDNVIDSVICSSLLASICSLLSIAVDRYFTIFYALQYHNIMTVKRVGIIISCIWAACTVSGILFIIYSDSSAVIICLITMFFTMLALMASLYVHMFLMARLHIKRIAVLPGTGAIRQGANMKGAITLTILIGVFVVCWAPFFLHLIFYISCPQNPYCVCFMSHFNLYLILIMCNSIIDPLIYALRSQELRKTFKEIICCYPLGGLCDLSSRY
Platelet-activating factor receptor, sequence (P25105 whole entry): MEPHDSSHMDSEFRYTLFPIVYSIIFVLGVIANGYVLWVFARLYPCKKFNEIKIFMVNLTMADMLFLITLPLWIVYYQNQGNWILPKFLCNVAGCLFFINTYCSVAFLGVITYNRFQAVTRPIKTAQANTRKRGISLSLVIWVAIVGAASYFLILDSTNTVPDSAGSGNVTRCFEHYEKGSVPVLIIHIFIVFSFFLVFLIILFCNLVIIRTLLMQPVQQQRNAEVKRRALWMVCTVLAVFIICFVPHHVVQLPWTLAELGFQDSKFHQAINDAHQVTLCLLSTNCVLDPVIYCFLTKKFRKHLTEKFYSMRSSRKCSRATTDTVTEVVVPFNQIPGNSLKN
5-hydroxytryptamine receptor 1B, sequence (P28564 whole entry): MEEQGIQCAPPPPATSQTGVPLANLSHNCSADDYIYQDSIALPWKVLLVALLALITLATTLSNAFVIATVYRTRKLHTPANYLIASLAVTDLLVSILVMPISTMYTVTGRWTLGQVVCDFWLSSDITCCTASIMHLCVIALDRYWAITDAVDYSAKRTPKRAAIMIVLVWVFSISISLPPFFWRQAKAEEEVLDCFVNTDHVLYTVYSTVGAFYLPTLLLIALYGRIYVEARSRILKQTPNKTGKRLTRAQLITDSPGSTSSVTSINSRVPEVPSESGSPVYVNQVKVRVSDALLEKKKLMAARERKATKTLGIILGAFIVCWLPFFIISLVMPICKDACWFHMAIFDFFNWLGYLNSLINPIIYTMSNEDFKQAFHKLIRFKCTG
Melanocortin receptor 5, sequence (P33032 whole entry): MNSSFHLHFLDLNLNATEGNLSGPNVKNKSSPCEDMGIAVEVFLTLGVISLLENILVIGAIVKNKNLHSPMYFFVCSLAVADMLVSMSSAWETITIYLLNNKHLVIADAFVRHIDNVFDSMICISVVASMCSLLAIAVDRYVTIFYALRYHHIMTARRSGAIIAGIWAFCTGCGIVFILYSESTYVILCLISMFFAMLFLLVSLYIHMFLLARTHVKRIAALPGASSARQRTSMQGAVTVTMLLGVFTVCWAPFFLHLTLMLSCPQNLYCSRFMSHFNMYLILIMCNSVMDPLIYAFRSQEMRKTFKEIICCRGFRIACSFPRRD
Cytochrome P450 2C19, sequence (P33261 whole entry): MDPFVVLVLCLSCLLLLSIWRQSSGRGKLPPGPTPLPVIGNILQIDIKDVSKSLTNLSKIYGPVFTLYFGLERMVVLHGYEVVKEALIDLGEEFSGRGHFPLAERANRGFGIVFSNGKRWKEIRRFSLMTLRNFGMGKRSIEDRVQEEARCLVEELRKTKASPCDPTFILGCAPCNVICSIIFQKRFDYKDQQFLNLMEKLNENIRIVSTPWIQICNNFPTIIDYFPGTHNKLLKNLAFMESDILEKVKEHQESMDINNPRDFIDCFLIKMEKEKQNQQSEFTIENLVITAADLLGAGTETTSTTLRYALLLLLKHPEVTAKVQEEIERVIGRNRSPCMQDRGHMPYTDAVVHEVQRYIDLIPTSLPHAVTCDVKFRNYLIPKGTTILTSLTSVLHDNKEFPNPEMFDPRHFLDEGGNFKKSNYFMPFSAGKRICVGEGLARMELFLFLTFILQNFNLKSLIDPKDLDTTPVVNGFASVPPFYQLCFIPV
Sodium-dependent noradrenaline transporter, sequence (P23975 whole entry): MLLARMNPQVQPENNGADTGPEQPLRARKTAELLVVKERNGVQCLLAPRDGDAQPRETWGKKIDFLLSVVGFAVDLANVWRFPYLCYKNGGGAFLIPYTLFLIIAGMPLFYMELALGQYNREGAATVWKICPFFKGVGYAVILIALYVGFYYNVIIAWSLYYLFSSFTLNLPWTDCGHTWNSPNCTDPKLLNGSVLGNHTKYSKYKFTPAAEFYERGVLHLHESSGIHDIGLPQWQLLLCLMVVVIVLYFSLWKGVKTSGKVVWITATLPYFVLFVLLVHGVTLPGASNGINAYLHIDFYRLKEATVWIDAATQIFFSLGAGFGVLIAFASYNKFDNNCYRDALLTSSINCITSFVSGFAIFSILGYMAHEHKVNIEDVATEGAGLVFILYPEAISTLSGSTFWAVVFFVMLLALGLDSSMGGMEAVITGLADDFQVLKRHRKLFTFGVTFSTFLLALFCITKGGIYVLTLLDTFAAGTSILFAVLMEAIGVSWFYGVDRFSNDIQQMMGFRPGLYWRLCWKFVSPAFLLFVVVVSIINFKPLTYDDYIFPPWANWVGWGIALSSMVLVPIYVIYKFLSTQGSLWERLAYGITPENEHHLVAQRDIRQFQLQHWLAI

C/C=C1\[C@H]2C=C(C)C[C@]1(N)c1ccc(=O)[nH]c1C2 [HUPERZINE A]
Not Active: IC50 [1] | IC50 [2] | IC50 [3] | Ki [3] | IC50 (Melanocortin receptor 4) | IC50 [4] | IC50 (Interstitial collagenase) | IC50 [5] | IC50 [6] | Ki [6] | IC50 (Melanocortin receptor 5) | IC50 [7] | IC50 (Cytochrome P450 2C19) | Ki (Cytochrome P450 2C19) | IC50 [8] | IC50 [9]

NS(=O)(=O)c1cc2c(cc1Cl)NCNS2(=O)=O [HYDROCHLOROTHIAZIDE]
Not Active: IC50 [1] | IC50 [2] | IC50 [3] | Ki [3] | IC50 (Melanocortin receptor 4) | IC50 [4] | IC50 (Interstitial collagenase) | IC50 [5] | IC50 [6] | Ki [6] | IC50 (Melanocortin receptor 5) | IC50 [7] | IC50 (Cytochrome P450 2C19) | Ki (Cytochrome P450 2C19) | IC50 [8] | IC50 [9]

CN1CCC[C@H]1c1cccnc1 [NICOTINE]
Not Active: IC50 [1] | IC50 [2] | IC50 [3] | Ki [3] | IC50 (Melanocortin receptor 4) | IC50 [4] | IC50 (Interstitial collagenase) | IC50 [5] | IC50 [6] | Ki [6] | IC50 (Melanocortin receptor 5) | IC50 [7] | IC50 (Cytochrome P450 2C19) | Ki (Cytochrome P450 2C19) | IC50 [8] | IC50 [9]

O=C1CN=C(c2ccccc2)c2cc([N+](=O)[O-])ccc2N1 [NITRAZEPAM]
Not Active: IC50 [1] | IC50 [2] | IC50 [3] | Ki [3] | IC50 (Melanocortin receptor 4) | IC50 [4] | IC50 (Interstitial collagenase) | IC50 [5] | IC50 [6] | Ki [6] | IC50 (Melanocortin receptor 5) | IC50 [7] | IC50 (Cytochrome P450 2C19) | Ki (Cytochrome P450 2C19) | IC50 [8] | IC50 [9]

Oc1cccc2cccnc12 [OXYQUINOLINE]
Not Active: IC50 [1] | IC50 [2] | IC50 [3] | Ki [3] | IC50 (Melanocortin receptor 4) | IC50 [4] | IC50 (Interstitial collagenase) | IC50 [5] | IC50 [6] | Ki [6] | IC50 (Melanocortin receptor 5) | IC50 [7] | IC50 (Cytochrome P450 2C19) | Ki (Cytochrome P450 2C19) | IC50 [8] | IC50 [9]

CN(C)[C@@H]1C(O)=C(C(N)=O)C(=O)[C@@]2(O)C(O)=C3C(=O)c4c(O)cccc4[C@@](C)(O)[C@H]3[C@H](O)[C@@H]12 [OXYTETRACYCLINE]
Not Active: IC50 [1] | IC50 [2] | IC50 [3] | Ki [3] | IC50 (Melanocortin receptor 4) | IC50 [4] | IC50 (Interstitial collagenase) | IC50 [5] | IC50 [6] | Ki [6] | IC50 (Melanocortin receptor 5) | IC50 [7] | IC50 (Cytochrome P450 2C19) | Ki (Cytochrome P450 2C19) | IC50 [8] | IC50 [9]

CC(C)(S)[C@@H](N)C(=O)O [PENICILLAMINE]
Not Active: IC50 [1] | IC50 [2] | IC50 [3] | Ki [3] | IC50 (Melanocortin receptor 4) | IC50 [4] | IC50 (Interstitial collagenase) | IC50 [5] | IC50 [6] | Ki [6] | IC50 (Melanocortin receptor 5) | IC50 [7] | IC50 (Cytochrome P450 2C19) | Ki (Cytochrome P450 2C19) | IC50 [8] | IC50 [9]

CC(=O)CCCCn1c(=O)c2c(ncn2C)n(C)c1=O [PENTOXIFYLLINE]
Not Active: IC50 [1] | IC50 [2] | IC50 [3] | Ki [3] | IC50 (Melanocortin receptor 4) | IC50 [4] | IC50 (Interstitial collagenase) | IC50 [5] | IC50 [6] | Ki [6] | IC50 (Melanocortin receptor 5) | IC50 [7] | IC50 (Cytochrome P450 2C19) | Ki (Cytochrome P450 2C19) | IC50 [8] | IC50 [9]

O=C1NC(=O)C(c2ccccc2)(c2ccccc2)N1 [PHENYTOIN]
Not Active: IC50 [1] | IC50 [2] | IC50 [3] | Ki [3] | IC50 (Melanocortin receptor 4) | IC50 [4] | IC50 (Interstitial collagenase) | IC50 [5] | IC50 [6] | Ki [6] | IC50 (Melanocortin receptor 5) | IC50 [7] | IC50 (Cytochrome P450 2C19) | Ki (Cytochrome P450 2C19) | IC50 [8] | IC50 [9]

CNC(=O)Oc1ccc2c(c1)[C@]1(C)CCN(C)[C@@H]1N2C [PHYSOSTIGMINE]
Not Active: IC50 [1] | IC50 [2] | IC50 [3] | Ki [3] | IC50 (Melanocortin receptor 4) | IC50 [4] | IC50 (Interstitial collagenase) | IC50 [5] | IC50 [6] | Ki [6] | IC50 (Melanocortin receptor 5) | IC50 [7] | IC50 (Cytochrome P450 2C19) | Ki (Cytochrome P450 2C19) | IC50 [8] | IC50 [9]

Reference: ChEMBL document CHEMBL1909046, “DrugMatrix in vitro pharmacology data”
